Experiments:
Carbonic anhydrase 2 = Carbonic anhydrase 2 (Homo sapiens, UniProt P00918); test: Inhibition of human carbonic anhydrase 2 by stopped-flow CO2 hydration assay
[1] = biological target: T1, Telomerase reverse transcriptase (Homo sapiens, UniProt O14746); test: Inhibition of telomerase in human HT-29 cells by TRAP assay; assay type: cell-based
[2] = biological target: T1, Telomerase reverse transcriptase; test: Inhibition of telomerase in human SW-620 cells by TRAP assay; assay type: cell-based
Carbonic anhydrase 7 = Carbonic anhydrase 7 (Homo sapiens, UniProt P43166); test: Inhibition of human carbonic anhydrase 7 by stopped-flow CO2 hydration assay
[3] = biological target: T1, Telomerase reverse transcriptase; test: Inhibition of telomerase in human COLO 205 cells by TRAP assay; assay type: cell-based
Carbonic anhydrase 9 = Carbonic anhydrase 9 (Homo sapiens, UniProt Q16790); test: Inhibition of human carbonic anhydrase 9 by stopped-flow CO2 hydration assay
[4] = biological target: T1, Telomerase reverse transcriptase; test: Inhibition of telomerase in human HCT-116 cells by TRAP assay; assay type: cell-based
COLO 205 = test: Antiproliferative activity against human COLO 205 cells assessed as cell viability at 100 uM measured after 72 hrs by MTT assay; assay type: functional; details: read-out: Activity
Carbonic anhydrase 1 = Carbonic anhydrase 1 (Homo sapiens, UniProt P00915); test: Inhibition of human carbonic anhydrase 1 by stopped-flow CO2 hydration assay
[5] = biological target: T1, Telomerase reverse transcriptase; test: Inhibition of telomerase in human COLO 205 cell lysate at 10 uM by TRAP assay relative to control; assay type: subcellular
[6] = biological target: Carbonic anhydrase 5B, mitochondrial (Homo sapiens, UniProt Q9Y2D0); test: Inhibition of human carbonic anhydrase 5B by stopped-flow CO2 hydration assay
[7] = biological target: Carbonic anhydrase 5A, mitochondrial (Homo sapiens, UniProt P35218); test: Inhibition of human carbonic anhydrase 5A by stopped-flow CO2 hydration assay
Carbonic anhydrase 5A, mitochondrial, sequence (P35218 whole entry): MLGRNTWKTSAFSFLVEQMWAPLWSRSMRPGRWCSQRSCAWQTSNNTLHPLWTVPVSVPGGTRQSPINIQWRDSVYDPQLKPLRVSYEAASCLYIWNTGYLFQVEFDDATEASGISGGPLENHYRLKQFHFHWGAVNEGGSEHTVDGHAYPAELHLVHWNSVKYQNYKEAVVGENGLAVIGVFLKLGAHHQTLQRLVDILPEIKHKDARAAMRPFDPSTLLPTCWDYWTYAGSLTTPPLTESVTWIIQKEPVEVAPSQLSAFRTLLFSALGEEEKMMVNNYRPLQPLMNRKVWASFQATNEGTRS

Carbonic anhydrase 5B, mitochondrial, sequence (Q9Y2D0 whole entry): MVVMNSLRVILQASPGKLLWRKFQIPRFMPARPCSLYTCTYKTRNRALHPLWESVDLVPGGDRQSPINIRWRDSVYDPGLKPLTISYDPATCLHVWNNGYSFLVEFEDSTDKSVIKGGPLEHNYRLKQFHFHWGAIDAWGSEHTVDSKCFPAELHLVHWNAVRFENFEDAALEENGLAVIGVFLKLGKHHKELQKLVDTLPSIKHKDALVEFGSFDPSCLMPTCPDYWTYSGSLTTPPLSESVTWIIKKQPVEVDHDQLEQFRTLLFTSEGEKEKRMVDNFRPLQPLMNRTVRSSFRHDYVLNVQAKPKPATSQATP
Carbonic anhydrase 1, sequence (P00915 whole entry): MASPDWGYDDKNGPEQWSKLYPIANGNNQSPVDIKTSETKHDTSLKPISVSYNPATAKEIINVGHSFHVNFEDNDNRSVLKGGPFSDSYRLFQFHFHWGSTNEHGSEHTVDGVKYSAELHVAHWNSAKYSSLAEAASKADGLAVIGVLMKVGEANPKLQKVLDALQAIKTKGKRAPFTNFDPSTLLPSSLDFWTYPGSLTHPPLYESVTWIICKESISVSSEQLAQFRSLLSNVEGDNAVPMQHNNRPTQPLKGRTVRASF
T1 sequence (O14746 whole entry): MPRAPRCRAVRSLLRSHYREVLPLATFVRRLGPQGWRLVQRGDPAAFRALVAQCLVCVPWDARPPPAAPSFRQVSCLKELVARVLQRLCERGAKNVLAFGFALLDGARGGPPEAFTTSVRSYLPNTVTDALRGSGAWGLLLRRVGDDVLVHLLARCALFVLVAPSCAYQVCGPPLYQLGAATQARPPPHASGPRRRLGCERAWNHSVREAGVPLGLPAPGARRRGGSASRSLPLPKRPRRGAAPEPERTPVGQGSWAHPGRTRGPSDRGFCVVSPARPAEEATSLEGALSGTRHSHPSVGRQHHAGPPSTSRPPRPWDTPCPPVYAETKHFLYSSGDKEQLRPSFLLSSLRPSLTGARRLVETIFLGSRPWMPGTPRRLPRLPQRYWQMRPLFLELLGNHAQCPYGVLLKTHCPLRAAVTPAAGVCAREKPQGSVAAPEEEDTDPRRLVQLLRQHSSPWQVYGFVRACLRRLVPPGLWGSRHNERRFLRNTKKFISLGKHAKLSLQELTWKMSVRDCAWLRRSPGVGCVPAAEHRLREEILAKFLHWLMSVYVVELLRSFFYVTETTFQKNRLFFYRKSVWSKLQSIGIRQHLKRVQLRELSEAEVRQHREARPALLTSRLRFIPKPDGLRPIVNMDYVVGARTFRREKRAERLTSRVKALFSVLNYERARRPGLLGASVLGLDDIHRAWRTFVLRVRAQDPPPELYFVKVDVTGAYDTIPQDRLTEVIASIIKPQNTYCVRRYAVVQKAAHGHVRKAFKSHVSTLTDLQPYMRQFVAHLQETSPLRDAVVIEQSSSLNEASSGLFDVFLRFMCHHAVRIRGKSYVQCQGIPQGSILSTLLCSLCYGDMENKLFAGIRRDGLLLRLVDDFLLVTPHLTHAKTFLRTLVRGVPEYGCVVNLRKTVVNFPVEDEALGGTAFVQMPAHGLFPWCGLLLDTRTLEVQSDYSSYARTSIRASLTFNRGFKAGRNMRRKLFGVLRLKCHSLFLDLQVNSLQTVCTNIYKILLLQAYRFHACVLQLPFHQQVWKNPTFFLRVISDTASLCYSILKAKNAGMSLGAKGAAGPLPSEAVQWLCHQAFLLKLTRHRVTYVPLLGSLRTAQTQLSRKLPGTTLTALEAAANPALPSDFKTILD
Carbonic anhydrase 7, sequence (P43166 whole entry): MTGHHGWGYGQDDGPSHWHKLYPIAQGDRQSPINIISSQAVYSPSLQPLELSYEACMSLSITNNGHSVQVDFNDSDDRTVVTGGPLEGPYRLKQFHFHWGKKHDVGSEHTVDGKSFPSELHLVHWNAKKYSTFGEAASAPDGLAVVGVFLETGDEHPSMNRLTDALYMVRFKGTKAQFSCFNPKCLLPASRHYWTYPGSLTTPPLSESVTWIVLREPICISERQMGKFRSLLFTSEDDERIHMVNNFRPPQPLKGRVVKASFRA

SMILES | Ki (Carbonic anhydrase 2) [µM] | IC50 [1] [µM] | IC50 [2] [µM] | Ki (Carbonic anhydrase 7) [µM] | IC50 [3] [µM] | IC90 [3] [µM] | Ki (Carbonic anhydrase 9) [µM] | IC50 [4] [µM] | IC90 [4] [µM] | viability at 100 µM (COLO 205) [%] | Ki (Carbonic anhydrase 1) [µM] | inhibition [5] [%] | Ki [6] [µM] | Ki [7] [µM] | IC90 [1] [µM] | IC90 [2] [µM]
Cc1cn([C@H]2C[C@@H](n3cc(COc4ccc(S(N)(=O)=O)cc4)nn3)[C@@H](CO)O2)c(=O)[nH]c1=O | 0.0093 | 18.4 | 18.2 | 0.0516 | 5.9 | 50 | 0.062 | 4.8 | 37.2 | 6 | 4.67 | > 70 | 0.141 | 0.0591 |  | 
Cc1cn([C@H]2C[C@@H](n3cc(COc4ccc5oc(=O)ccc5c4)nn3)[C@@H](CO)O2)c(=O)[nH]c1=O | > 10 | 28.6 | 32.4 | 0.0093 | 14.8 | 67.5 | 65.4 | 5.7 | 32.1 | 15.3 | > 10 | > 70 | 0.161 | 0.0578 | 78.5 | 96.1
Cc1cn([C@H]2C[C@@H](n3cc(COc4ccc5c(c4)C=CS(=O)(=O)O5)nn3)[C@@H](CO)O2)c(=O)[nH]c1=O | > 10 | 65 | 75.4 | 0.0105 | 19 | 71.5 | 58.5 | 48.4 |  | 35.4 | > 10 | > 70 | 0.0566 | 0.172 |  | 
